Our source for the Ki values is ChEMBL document CHEMBL1140305, “Three-dimensional quantitative structure-activity relationship analyses of beta-lactam antibiotics and tripeptides as substrates of the mammalian H+/peptide cotransporter PEPT1” (J Med Chem, 2005).

Structures are written as SMILES. Non-standard residues stand in square brackets, D forms with d. Residues, ends and D or L forms follow the SMILES beside them. *: point of attachment. Bip = N[C@@H](Cc1ccc(-c2ccccc2)cc1)C(=O)O; NMeT = CN[C@H](C(=O)O)[C@@H](C)O; OBn = c1ccc(CO*)cc1; Bn = c1ccc(C*)cc1

A word on the Ki: it is a measure of affinity in units of concentration, obtained from inhibition or displacement. Low values mean higher affinity, high ones lower affinity.

The first assay deals with T1, Solute carrier family 15 member 1 (Homo sapiens, UniProt P46059).
T1 sequence (P46059 whole entry): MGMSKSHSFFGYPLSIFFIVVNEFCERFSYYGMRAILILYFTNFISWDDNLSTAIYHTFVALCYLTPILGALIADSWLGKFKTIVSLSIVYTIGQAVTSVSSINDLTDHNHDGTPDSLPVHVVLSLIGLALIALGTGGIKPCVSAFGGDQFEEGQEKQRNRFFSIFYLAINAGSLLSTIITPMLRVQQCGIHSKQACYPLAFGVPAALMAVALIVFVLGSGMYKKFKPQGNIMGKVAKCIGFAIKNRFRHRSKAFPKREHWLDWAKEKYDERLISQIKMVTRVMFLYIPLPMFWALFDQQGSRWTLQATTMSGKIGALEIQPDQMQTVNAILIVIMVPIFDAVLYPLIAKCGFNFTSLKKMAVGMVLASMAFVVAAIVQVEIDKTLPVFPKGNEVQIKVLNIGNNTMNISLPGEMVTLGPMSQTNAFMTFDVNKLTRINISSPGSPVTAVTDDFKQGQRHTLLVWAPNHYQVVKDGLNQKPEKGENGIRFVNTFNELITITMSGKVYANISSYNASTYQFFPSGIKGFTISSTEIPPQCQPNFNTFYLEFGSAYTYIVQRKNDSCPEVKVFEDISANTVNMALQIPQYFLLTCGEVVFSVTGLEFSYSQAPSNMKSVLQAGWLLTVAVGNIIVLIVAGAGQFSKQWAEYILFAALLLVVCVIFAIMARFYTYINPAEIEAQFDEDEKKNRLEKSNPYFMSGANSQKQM
Briefly: Binding affinity against membrane transport protein PEPT1 in human Caco-2 cells.
Conditions: not given
The format is cell-based. On the technique in general: Caco-2 monolayers are a common model of the intestinal barrier.
Take `C[C@@H](N)C(=O)N1CCC[C@H]1C(=O)O`: affinity was put at a Ki of 5000 µM.

Consider `CC(C)C[C@H](N)C(=O)NCC(=O)NCC(=O)O` (H-Leu-Gly-Gly-OH), for which the Ki amounted to 390 µM.

As to `C[C@H](NC(=O)[C@@H](N)CCCCN)C(N)=O` (H-Lys-Ala-NH2), the Ki was found to be 6400 µM.

With `NCC(=O)N[C@@H](Cc1c[nH]cn1)C(=O)O` (H-Gly-His-OH), the affinity corresponds to a Ki of 4100 µM. This Ki is about 1.6-fold lower than that of the molecule before.

In the case of `C[C@@H](N)C(=O)N[C@@H](CCCCN)C(=O)O`, the Ki came out at 7000 µM.

Regarding `C[C@H](N)C(=O)NC(=O)C1CCCCC1`, the affinity, expressed as Ki, was 1500 µM.

As to `C[C@H](N)C(=O)N[C@@H](C)C(=O)O` (stereo in doubt; 47), the inhibitory constant (Ki) was found to be 2100 µM.

In the case of `CC(C)C[C@H](N)C(=O)N[C@@H](C)C(=O)N[C@@H](CCCNC(=N)N)C(=O)O` (H-Leu-Ala-Arg-OH), the Ki worked out at 110 µM.

`NCCCC[C@H](N)C(=O)N[C@@H](CCC(=O)O)C(=O)O` (H-Lys-Glu-OH) registered a Ki of 1300 µM.

For `CC(C)[C@H](NC(=O)[C@H](N)Cc1ccc(O)cc1)C(=O)NCC(=O)O` (H-[dY]-Val-Gly-OH), the Ki came out at 14000 µM.

Turning to `C[C@@H](N)C(=O)N[C@H](CCCCN)C(=O)O`, the Ki was > 30000 µM.

In turn, `O=C(O)C[C@H](NC(=O)[C@@H]1CCCN1)C(=O)O` (stereo in doubt; 64) registered a Ki of 9800 µM.

`CC[C@H](C)[C@H](NC(=O)[C@@H]1CCCN1C(=O)[C@@H](N)Cc1ccc(O)cc1)C(=O)O` (H-Tyr-Pro-Ile-OH): the Ki came out at 250 µM.

As for `C[C@H](N)C(=O)N[C@@H](C)C(=O)N[C@@H](C)C(=O)O`, the affinity, expressed as Ki, was 180 µM.

For `[N-]=[N+]=N[C@H](C(=O)NC1C(=O)N2C(C(=O)O)=CCSC12)c1ccccc1` (stereo partly specified), the Ki came out at 15000 µM.

`C[C@H](N)C(=O)N1CCCC1C(=O)O` (single isomer, unassigned) yielded a Ki of 15000 µM.

As to `O=C(O)CNC(=O)CNC(=O)[C@@H]1CCCN1` (H-Pro-Gly-Gly-OH), the Ki came to 16000 µM.

Consider `CO[C@@]1(NC(=O)Cc2cccs2)C(=O)N2C(C(=O)O)=C(COC(N)=O)CS[C@@H]21` [CEFOXITIN], for which the affinity, expressed as Ki, was 10000 µM.

For the molecule `CC(C)C[C@H](NC(=O)[C@H](C)NC(=O)[C@@H](N)C(C)C)C(=O)O` (H-Val-Ala-Leu-OH), the affinity corresponds to a Ki of 140 µM. This Ki is about 71-fold lower than that of the molecule before.

In the case of `CC1(C)S[C@@H]2[C@H](NC(=O)COc3ccccc3)C(=O)N2[C@H]1C(=O)O` [PENICILLIN V], the Ki was 21000 µM.

With `CC(C)C[C@H](NC(=O)[C@@H]1CCCN1C(=O)[C@H](C)N)C(=O)O` (H-Ala-Pro-Leu-OH), the affinity, expressed as Ki, was 150 µM. This Ki is about 140-fold lower than that of the molecule before.

Consider `NCCCC[C@H](NC(=O)[C@@H](N)CC(=O)O)C(=O)O` (H-Asp-Lys-OH), for which the affinity, expressed as Ki, was 860 µM.

`CC(C)C[C@H](NC(=O)[C@H](CC(C)C)NC(=O)[C@@H](N)Cc1ccccc1)C(=O)O` (H-Phe-Leu-Leu-OH) displayed a Ki of 140 µM.

`N[C@@H](Cc1ccc(O)cc1)C(=O)NCC(=O)NCC(=O)O` (H-Tyr-Gly-Gly-OH) had a Ki of 350 µM.

Molecule `CC(C)C[C@H](NC(=O)[C@H]([C@@H](C)O)N(C)C(=O)[C@@H](N)CC(C)C)C(=O)O` (H-Leu-[NMeT]-Leu-OH) came in with a Ki of 110 µM.

In turn, `C[C@@H](O)[C@H](N)C(=O)N[C@@H](CCCCN)C(=O)N[C@@H](Cc1ccc(O)cc1)C(=O)O` (H-Thr-Lys-Tyr-OH) had a Ki of 1100 µM.

In the case of `COCC1=C(C(=O)O)N2C(=O)[C@@H](NC(=O)/C(=N\OC)c3csc(N)n3)[C@H]2SC1` [CEFPODOXIME], the Ki was > 30000 µM.

`CC1=C(C(=O)O)N2C(=O)[C@@H](NC(=O)[C@H](N)C3=CCC=CC3)[C@H]2SC1` [CEPHRADINE] showed a Ki of 9800 µM.

As for `CC(C)C[C@H](N)C(=O)N1CCC[C@H]1C(=O)O` (H-Leu-Pro-OH), the affinity corresponds to a Ki of 180 µM.

For the molecule `CC[C@H](C)[C@H](N)C(=O)N[C@@H](Cc1ccc(O)cc1)C(=O)O` (H-Ile-Tyr-OH), the affinity corresponds to a Ki of 120 µM. Compared with the last molecule, the Ki is about 1.5-fold lower.

For the molecule `Cc1onc(-c2ccccc2Cl)c1C(=O)N[C@@H]1C(=O)N2[C@@H]1SC(C)(C)[C@@H]2C(=O)O` [CLOXACILLIN], the Ki worked out at 2500 µM.

On to `CC[C@H](C)[C@H](N)C(=O)N[C@H](C(=O)N[C@@H](Cc1ccc(O)cc1)C(=O)O)C(C)C` (H-Ile-Val-Tyr-OH), for which the Ki is 200 µM.

Turning to `C[C@@H](NC(=O)[C@@H](N)Cc1ccc(O)cc1)C(=O)NCC(=O)O` (H-Tyr-[dA]-Gly-OH), the Ki was found to be 14000 µM.

In turn, `C[C@H](NC(=O)[C@@H](N)CC(=O)OCc1ccccc1)C(=O)O` (H-Asp(OBn)-Ala-OH) returned a Ki of 90 µM.

Regarding `O=C(O)[C@@H]1CCCN1C(=O)[C@@H]1CCCN1` (H-Pro-Pro-OH), the Ki came out at 1200 µM.

The molecule `C[C@H](NC(=O)[C@@H](N)Cc1ccc(OCc2ccccc2)cc1)C(=O)O` gave a Ki of 90 µM.

As for `N[C@@H](CCC(=O)O)C(=O)N[C@@H](Cc1ccccc1)C(=O)N[C@@H](Cc1ccc(O)cc1)C(=O)O` (H-Glu-Phe-Tyr-OH), the Ki was 200 µM.

Molecule `CSCC[C@H](NC(=O)[C@H](CCSC)NC(=O)[C@@H](N)CCSC)C(=O)O` (stereo in doubt; 119) had a Ki of 520 µM.

Consider `C[C@H](N)C(=O)N[C@H](CCCCN)C(=O)O`, for which the Ki was > 30000 µM.

In the case of `C[C@H](NC(=O)[C@@H](N)Cc1ccc(-c2ccccc2)cc1)C(=O)O` (H-[Bip]-Ala-OH), the affinity corresponds to a Ki of 10 µM.

For `CC(C)C[C@@H](N)C(=O)NCC(=O)NCC(=O)O` (H-[dL]-Gly-Gly-OH), the affinity, expressed as Ki, was 25000 µM.

For the molecule `NCCCC[C@H](NC(=O)[C@H](Cc1ccccc1)NC(=O)[C@@H]1CCCN1)C(=O)O` (H-Pro-Phe-Lys-OH), the affinity, expressed as Ki, was 2000 µM.

Molecule `N[C@@H](Cc1ccc(O)cc1)C(=O)N[C@@H](Cc1ccccc1)C(=O)O` (H-Tyr-Phe-OH) showed a Ki of 140 µM.

With `C[C@H](N)C(=O)N[C@@H](C)C(=O)N[C@H](C)C(=O)O`, the Ki turned out to be 8300 µM.

On to `NCCCC[C@H](NC(=O)[C@@H](N)CCC(=O)O)C(=O)O` (H-Glu-Lys-OH), for which the Ki was determined as 510 µM.

For `C[C@H](N)C(=O)N[C@H](Cc1ccccc1)C(=O)N[C@@H](C)C(=O)O`, the affinity corresponds to a Ki of 19000 µM.

Turning to `C[C@H](NC(=O)[C@@H](N)CCCCN)C(=O)O` (H-Lys-Ala-OH), the affinity corresponds to a Ki of 340 µM.

As for `CSCC[C@H](NC(=O)[C@H](CCSC)NC(=O)[C@@H](N)CCSC)C(=O)O` (stereo in doubt; 10), affinity was put at a Ki of 100 µM.

Turning to `N[C@@H](Cc1c[nH]c2ccccc12)C(=O)NCC(=O)N[C@@H](Cc1ccc(O)cc1)C(=O)O`, affinity was put at a Ki of 240 µM.

`CC(C)C[C@H](N)C(=O)N[C@@H](CCCN=C(N)N)C(=O)N1CCC[C@H]1C(=O)O` (H-Leu-Arg-Pro-OH): the affinity corresponds to a Ki of 300 µM.

`C[C@H](NC(=O)[C@@H](N)Cc1c[nH]c2ccccc12)C(=O)O` (H-Trp-Ala-OH) returned a Ki of 160 µM.

`C[C@H](NC(=O)[C@H](C)NOC(=O)[C@@H](C)N)C(=O)O` registered an inhibition constant (Ki) of 7900 µM.

Turning to `C[C@H](N)C(=O)N[C@@H](CCCCN)C(=O)O`, the Ki was 210 µM.

Regarding `CC(C)C[C@H](N)C(=O)N1CCC[C@H]1C(=O)N[C@@H](CCCN=C(N)N)C(=O)O` (H-Leu-Pro-Arg-OH), the Ki was 100 µM.

Regarding `C[C@H](N)C(=O)N[C@@H](C)C(=O)O` (stereo in doubt; 110), the affinity corresponds to a Ki of 140 µM. This Ki and that of the molecule before are within 1.5-fold of each other.

The molecule `C[C@H](NC(=O)[C@H](Cc1ccccc1)NCc1ccccc1)C(=O)O` came in with a Ki of 20 µM. This Ki lies about 7-fold lower than the previous one.

`C[C@H](NC(=O)[C@@H](N)COCc1ccccc1)C(=O)O` (H-Ser(Bn)-Ala-OH) registered a Ki of 90 µM.

Molecule `CC(C)C[C@H](NC(=O)[C@H](Cc1ccccc1)NC(=O)[C@H](C)N)C(=O)O` (H-Ala-Phe-Leu-OH) showed a Ki of 100 µM.

Regarding `C[C@H](N)C(=O)N[C@H](C)C(=O)N[C@@H](C)C(=O)O`, the affinity, expressed as Ki, was 17000 µM.

For the molecule `N[C@@H](Cc1c[nH]c2ccccc12)C(=O)N[C@@H](Cc1c[nH]c2ccccc12)C(=O)N[C@@H](Cc1c[nH]c2ccccc12)C(=O)O` (H-Trp-Trp-Trp-OH), the inhibitory constant (Ki) came to 170 µM.

In the case of `Cc1nnc(SCC2=C(C(=O)O)N3C(=O)[C@@H](NC(=O)Cn4cnnn4)[C@H]3SC2)s1` [CEFAZOLIN], the Ki is > 30000 µM.

In turn, `N=C(N)NCCC[C@H](NC(=O)[C@@H]1CCCN1)C(=O)O` (H-Pro-Arg-OH) displayed a Ki of 2500 µM.

On to `CCN1CCN(C(=O)N[C@@H](C(=O)N[C@@H]2C(=O)N3[C@@H]2SC(C)(C)[C@@H]3C(=O)O)c2ccccc2)C(=O)C1=O` [PIPERACILLIN], for which the Ki was > 30000 µM.

Molecule `Cc1onc(-c2c(F)cccc2Cl)c1C(=O)N[C@@H]1C(=O)N2[C@@H]1SC(C)(C)[C@@H]2C(=O)O` [FLOXACILLIN] showed a Ki of 3200 µM. This counts as millimolar.

The same assay, now with this note: caco-2.
For the molecule `O=C(O)C[C@H](NC(=O)[C@@H]1CCCN1)C(=O)O` (stereo in doubt; 121), the Ki came to 9800 µM. In other words, the millimolar range.

The molecule `CC(C)[C@H](N)C(=O)N1CCC[C@H]1C(=O)N1CCC[C@@H]1C(=O)O` came in with a Ki of 4300 µM. Compared with the last molecule, the Ki is about 2.3-fold lower.
